Source: patent US20110130397A1, “PYRROLINONE COMPOUNDS AS INHIBITORS OF BACTERIAL PEPTIDYL TRNA HYDROLASE AND USES THEREOF” (priority 2006, published 2011)

Cc1ccc(C(=O)C2=C(O)C(=O)N(c3nc4ccc(F)cc4s3)C2c2cccc(F)c2F)o1 (stereo not shown) [Compound 624]
melting point: 239 to 240 °C

CCOc1ccc2nc(N3C(=O)C(O)=C(C(=O)c4ccc(C)o4)C3c3ccc4c(c3)OCO4)sc2c1 (stereo not shown) [Compound 251]
melting point: 230 to 231 °C

CCOC(=O)CCC(=O)C1=C(O)C(=O)N(c2nc3ccc(F)cc3s2)C1c1ccc(Cl)cc1 (stereo not shown) [Compound 498]
melting point: 219 to 220 °C

O=C(COc1ccccc1)C1=C(O)C(=O)N(c2nc3ccc(Cl)cc3s2)C1c1ccccc1F (stereo not shown) [Compound 446]
melting point: 218 to 219 °C

COc1cc(C2C(C(=O)c3ccc(C)o3)=C(O)C(=O)N2c2nc3ccc(F)cc3s2)cc(OC)c1OC (stereo not shown) [Compound 606]
melting point: 244 to 245 °C

Cc1ccc(C(=O)C2=C(O)C(=O)N(CCCNCCCN)C2c2ccc(F)cc2)o1 (stereo not shown) [Compound 491]
melting point: 126 to 128 °C

COC(=O)c1cccc(C2C(C(=O)c3ccc(C)o3)=C(O)C(=O)N2c2nc3ccc(OC)cc3s2)c1 (stereo not shown) [Compound 154]
melting point: 250 to 252 °C

Cc1ccc(C(=O)C2=C(O)C(=O)N(c3ncnc4[nH]ncc34)C2c2ccccc2F)o1 (stereo not shown) [Compound 218]
melting point: 256 to 258 °C

CCOC(=O)CCC(=O)C1=C(O)C(=O)N(c2nc3ccc(F)cc3s2)C1c1ccc(F)cc1 (stereo not shown) [Compound 497]
melting point: 201 to 202 °C

COCC(=O)C1=C(O)C(=O)N(c2nc3ccc(Cl)cc3s2)C1c1ccc(F)cc1 (stereo not shown) [Compound 442]
melting point: 263 to 264 °C

Cc1ccc(C(=O)C2=C(O)C(=O)N(c3nc4c(O)ncnc4[nH]3)C2c2ccccc2F)o1 (stereo not shown) [Compound 162]
melting point: > 350 °C

Cc1ccc(C(=O)C2=C(O)C(=O)N(c3ncnc4[nH]cnc34)C2c2ccccc2F)o1 (stereo not shown) [Compound 219]
melting point: 170 to 173 °C

Cc1ccc(C(=O)C2=C(O)C(=O)N(C3CCC(O)CC3)C2c2ccccc2F)o1 (stereo not shown) [Compound 433]
melting point: 204 to 206 °C

CC(=O)NC(CC(C)C)C(=O)C1=C(O)C(=O)N(c2nc3ccc(Cl)cc3s2)C1c1ccc(F)cc1 (stereo not shown) [Compound 647]
melting point: 148 to 152 °C

Cc1ccc(C(=O)C2=C(O)C(=O)N(c3nc4cccnc4s3)C2c2ccc3c(c2)OCO3)o1 (stereo not shown) [Compound 247]
melting point: 248 to 249 °C

CCOc1ccc2nc(N3C(=O)C(O)=C(C(=O)c4ccc(C)o4)C3c3ccccc3)sc2c1 (stereo not shown) [Compound 182]
melting point: 247 to 248 °C

O=C(C1=C(O)C(=O)N(c2nc3c(Cl)cccc3s2)C1c1ccccc1F)C1CC1 (stereo not shown) [Compound 456]
melting point: 253 to 254 °C

Cc1ccc(C(=O)C2=C(O)C(=O)N(c3nc4c(Cl)cccc4s3)C2c2cccc3ccccc23)o1 (stereo not shown) [Compound 619]
melting point: 249 to 250 °C

COc1ccccc1CC(=O)C1=C(O)C(=O)N(c2nc3ccc(F)cc3s2)C1c1ccccc1F (stereo not shown) [Compound 482]
melting point: 207 to 208 °C

COc1cccc(C2C(C(=O)c3ccc(C)o3)=C(O)C(=O)N2c2nc3ccc(Cl)cc3s2)c1 (stereo not shown) [Compound 602]
melting point: 229 to 230 °C

COCC(=O)C1=C(O)C(=O)N(c2nc3c(Cl)cccc3s2)C1c1ccccc1F (stereo not shown) [Compound 445]
melting point: 231 to 233 °C

CCOC(=O)CCC(=O)C1=C(O)C(=O)N(c2nc3ccc(Cl)cc3s2)C1c1ccccc1F (stereo not shown) [Compound 493]
melting point: 206 to 207 °C

COc1cccc(C2C(C(=O)c3ccc(C)o3)=C(O)C(=O)N2c2nc3c(Cl)cccc3s2)c1 (stereo not shown) [Compound 604]
melting point: 255 to 256 °C

O=C(C1=C(O)C(=O)N(c2nc3ccc(Cl)cc3s2)C1c1ccccc1F)C1CC2C=CC1C2 (stereo not shown) [Compound 579]
melting point: 205 to 206 °C

CCOC(=O)CCC(=O)C1=C(O)C(=O)N(c2nc3ccc(Cl)cc3s2)C1c1ccc(F)cc1 (stereo not shown) [Compound 494]
melting point: 224 to 225 °C

CCOc1ccc2nc(N3C(=O)C(O)=C(C(=O)c4ccc(C)o4)C3c3cccc(O)c3)sc2c1 (stereo not shown) [Compound 223]
melting point: 254 to 255 °C

CC(C)(C)C(=O)C1=C(O)C(=O)N(c2nc3ccc(Cl)cc3s2)C1c1ccc(F)cc1 (stereo not shown) [Compound 421]
melting point: 239 to 240 °C

COc1ccc2nc(N3C(=O)C(O)=C(C(=O)c4ccc(C)o4)C3c3ccco3)sc2c1 (stereo not shown) [Compound 153]
melting point: 240 to 242 °C

Cc1ccc(C(=O)C2=C(O)C(=O)N(Cc3nc4ccccc4[nH]3)C2c2ccc(F)cc2)o1 (stereo not shown) [Compound 567]
melting point: 96 to 100 °C

Cc1ccc(C(=O)C2=C(O)C(=O)N(c3nc4c(Cl)cccc4s3)C2c2ccccc2C)o1 (stereo not shown) [Compound 628]
melting point: 244 to 245 °C

Cc1ccc(C(=O)C2=C(O)C(=O)N(C3CCCCC3)C2c2ccccc2F)o1 (stereo not shown) [Compound 432]
melting point: 195 to 196 °C

Cc1ccc(C(=O)C2=C(O)C(=O)N(c3nc(N4CCOCC4)c4nc[nH]c4n3)C2c2cccc([N+](=O)[O-])c2)o1 (stereo not shown) [Compound 284]
melting point: 280 to 282 °C

Cc1ccc(C(=O)C2=C(O)C(=O)N(c3nc4cccnc4s3)C2c2cccc(C#N)c2)o1 (stereo not shown) [Compound 246]
melting point: 251 to 252 °C

Cc1ccc(C(=O)C2=C(O)C(=O)N(c3nc4c(Cl)cccc4s3)C2c2cccc(F)c2F)o1 (stereo not shown) [Compound 625]
melting point: 274 to 275 °C

Cc1ccc(C(=O)C2=C(O)C(=O)N(c3nc4cc(Cl)ccc4o3)C2c2ccccc2F)o1 (stereo not shown) [Compound 160]
melting point: 244 to 245 °C

Cc1ccc(C(=O)C2=C(O)C(=O)N(c3nc4ccc(Cl)cc4s3)C2c2ccc(OCc3ccccc3)cc2)o1 (stereo not shown) [Compound 470]
melting point: 196 to 197 °C

Cc1ccc(C(=O)C2=C(O)C(=O)N(c3nc(N4CCOCC4)c4nc[nH]c4n3)C2c2ccccc2)o1 (stereo not shown) [Compound 283]
melting point: 291 to 292 °C

CC(=O)N1CCCC1C(=O)C1=C(O)C(=O)N(c2nc3ccc(Cl)cc3s2)C1c1ccc(F)cc1 (stereo not shown) [Compound 646, 4-(1-Acetylpyrrolidine-2-carbonyl)-1-(6-chlorobenzo[d]thiazol-2-yl)-5-(4-fluorophenyl)-3-hydroxy-1H-pyrrol-2(5H)-one]
melting point: 268 to 272 °C

O=C(C1=C(O)C(=O)N(c2nc3ccc(Cl)cc3s2)C1c1ccccc1F)c1nccs1 (stereo not shown) [Compound 435]
melting point: 309 to 310 °C

COc1ccccc1CC(=O)C1=C(O)C(=O)N(c2nc3ccc(Cl)cc3s2)C1c1ccc(F)cc1 (stereo not shown) [Compound 484]
melting point: 253 to 255 °C

CCOc1ccc2nc(N3C(=O)C(O)=C(C(=O)c4ccc(C)o4)C3c3sc4ccccc4c3C)sc2c1 (stereo not shown) [Compound 250]
melting point: 227 to 228 °C

CCc1ccc2nc(N3C(=O)C(O)=C(C(=O)c4ccc(C)o4)C3c3ccc(F)cc3)sc2c1 (stereo not shown) [Compound 131]
melting point: 222 to 225 °C

CCOC(=O)CCC(=O)C1=C(O)C(=O)N(c2nc3c(Cl)cccc3s2)C1c1ccc(Cl)cc1 (stereo not shown) [Compound 501]
melting point: 215 to 216 °C

Cc1ccc(C(=O)C2=C(O)C(=O)N(c3nc4ccc(Cl)cc4s3)C2c2ccc3c(c2)OCCO3)o1 (stereo not shown) [Compound 596]
melting point: 236 to 237 °C

CCOc1ccc2nc(N3C(=O)C(O)=C(C(=O)c4ccc(C)o4)C3c3cccc(C#N)c3)sc2c1 (stereo not shown) [Compound 220]
melting point: 226 to 227 °C

Cc1ccc(C(=O)C2=C(O)C(=O)N(c3nc4ccc(F)cc4s3)C2c2ccc(C#N)cc2)o1 (stereo not shown) [Compound 621]
melting point: 255 to 256 °C

Cc1ccc(C(=O)C2=C(O)C(=O)N(Cc3ccco3)C2c2ccccc2F)o1 (stereo not shown) [Compound 502]
melting point: 177 to 178 °C

CCCCOc1ccc(C2C(C(=O)c3ccc(C)o3)=C(O)C(=O)N2c2nc3ccc(OCC)cc3s2)cc1 (stereo not shown) [Compound 187]
melting point: 191 to 192 °C

CCN(CC)c1ccc(C2C(C(=O)c3ccc(C)o3)=C(O)C(=O)N2c2nc3ccc(F)cc3s2)cc1 (stereo not shown) [Compound 615]
melting point: 209 to 212 °C

Cc1ccc(C(=O)C2=C(O)C(=O)N(c3ccncn3)C2c2ccccc2F)o1 (stereo not shown) [Compound 189]
melting point: 235 to 236 °C

CCc1ccc2nc(N3C(=O)C(O)=C(C(=O)c4ccc(C)o4)C3c3ccc(Cl)c(Cl)c3)sc2c1 (stereo not shown) [Compound 134]
melting point: 197 to 201 °C

Cc1ccc(C(=O)C2=C(O)C(=O)N(c3nc4ccc(Cl)cc4s3)C2c2ccc(Oc3ccccc3)cc2)o1 (stereo not shown) [Compound 467]
melting point: 238 to 239 °C

COc1ccccc1CC(=O)C1=C(O)C(=O)N(c2nc3c(Cl)cccc3s2)C1c1ccc(Cl)cc1 (stereo not shown) [Compound 489]
melting point: 176 to 178 °C

Cc1ccc(C(=O)C2=C(O)C(=O)N(c3nc4ccc(F)cc4s3)C2c2ccc(Oc3ccccc3)cc2)o1 (stereo not shown) [Compound 468]
melting point: 172 to 173 °C

COc1ccccc1CC(=O)C1=C(O)C(=O)N(c2nc3ccc(F)cc3s2)C1c1ccc(Cl)cc1 (stereo not shown) [Compound 488]
melting point: 249 to 250 °C

CC(C)(C)C(=O)C1=C(O)C(=O)N(c2nc3ccc(F)cc3s2)C1c1ccc(F)cc1 (stereo not shown) [Compound 424]
melting point: 232 to 233 °C

Cc1ccc(C(=O)C2=C(O)C(=O)N(CCc3c[nH]c4ccccc34)C2c2ccc(Cl)cc2)o1 (stereo not shown) [Compound 595]
melting point: 165 to 166 °C

Cc1ccc(C(=O)C2=C(O)C(=O)N(c3nc4ccc(F)cc4s3)C2c2ccccc2C)o1 (stereo not shown) [Compound 627]
melting point: 214 to 215 °C

Cc1ccc(C(=O)C2=C(O)C(=O)N(Cc3nc4ccccc4[nH]3)C2c2ccccc2F)o1 (stereo not shown) [Compound 566]
melting point: 91 to 93 °C

Cc1ccc(C(=O)C2=C(O)C(=O)N(c3nc4ccc(Cl)cc4s3)C2c2ccccc2C)o1 (stereo not shown) [Compound 626]
melting point: 254 to 256 °C

Cc1ccc(C(=O)C2=C(O)C(=O)N(c3nc4c(Cl)cccc4s3)C2c2ccc(C#N)cc2)o1 (stereo not shown) [Compound 622]
melting point: 273 to 274 °C

CCc1ccc2nc(N3C(=O)C(O)=C(C(=O)c4ccc(C)o4)C3c3ccc(C(F)(F)F)cc3)sc2c1 (stereo not shown) [Compound 137]
melting point: 138 to 140 °C

O=C(O)CCC(=O)C1=C(O)C(=O)N(c2nc3ccc(Cl)cc3s2)C1c1ccccc1F (stereo not shown) [Compound 568]
melting point: 258 to 260 °C

O=C(C1=C(O)C(=O)N(c2nc3ccc(Cl)cc3s2)C1c1ccc(F)cc1)c1nccs1 (stereo not shown) [Compound 436]
melting point: 310 to 311 °C

O=C(C1=C(O)C(=O)N(c2nc3c(Cl)cccc3s2)C1c1ccccc1F)c1nccs1 (stereo not shown) [Compound 439]
melting point: 320 to 321 °C

CCc1ccc2nc(N3C(=O)C(O)=C(C(=O)c4ccc(C)o4)C3c3ccc(OC)cc3)sc2c1 (stereo not shown) [Compound 132]
melting point: 192 to 194 °C

COc1ccccc1CC(=O)C1=C(O)C(=O)N(c2nc3c(Cl)cccc3s2)C1c1ccc(F)cc1 (stereo not shown) [Compound 486]
melting point: 243 to 245 °C
